Assays:
[1] = tested on: hippocampus of apoE4-KI mice; assay: RNA-Seq analysis of hippocampal tissue of apoE4-KI mice; format: in vivo
Description: RNA-Seq analysis of hippocampal tissue. Twelve-month-old apoE3-KI and apoE4-KI mice received daily i.p. injections of vehicle or bumetanide (0.2 mg/kg body weight) for 60 days. Mice were perfused with 0.9% saline, and the hippocampus was dissected and homogenized in Trizol reagent. Total RNA was extracted and purified with the Qiagen RNeasy Micro kit, which included a DNase treatment. cDNA was generated from full-length RNA (50 ng per sample) with the NuGEN RNA-Seq V2 kit, which uses the single primer isothermal amplification method to deplete ribosomal RNA, and sheared by Covaris to yield fragments of uniform size. The NuGen Ultralow system V2 was used for adding adapters and for barcoding and amplification. The resulting RNA libraries were purified with Agencourt XP magnetic beads, and quantified by qPCR after quality control with an Agilent Bioanalyzer. The libraries were pooled and sequenced with a HiSeq 4000 instrument (Illumina) for single-end (SE50) sequencing. Sequence data were aligned with the STAR short read aligner^33 and counts per feature were obtained with the feautureCounts function from the Subread package^34. After alignment, transcripts not shared in the GSE15222 and Syn3157255-MayoEGWAS databases were discarded, as were genes with less than one count per million in two or more samples^35.
The DESeq pipeline was used to assess DE of the remaining 11,877 transcripts. Genes below a P value of 0.05 were considered DE for future pathway analysis. After count normalization with DESeq, data were rld transformed (vsn package), and clustering was done on the DE genes with the pheatmap package. PCA was applied to the rld-transformed DE genes. The DE signatures of drugs were analyzed with Ingenuity Pathway Analysis software. Ontology analysis was done using the reference set from the Ingenuity Knowledge Base including direct and indirect gene relationships. For analysis of rank changes of apoE-genotype-specific signature genes of AD, the raw count data from the 11,877 transcripts were rank transformed, and for each gene the average rank of vehicle-treated samples was subtracted from that of bumetanide-treated samples.

[2] = tested on: hippocampal cells of apoE4-KI mice; assay: Single-nucleus RNA-seq of hippocampus of apoE4-KI mice; format: in vivo
Description: Single-Nucleus RNA-Seq Library Preparation and Sequencing. Twelve-month-old apoE3-KI and apoE4-KI mice received daily i.p. injections of vehicle or bumetanide (0.2 mg/kg body weight) for 60 days. […] Mouse hippocampi were acutely dissected on ice. Dissected hippocampi were placed in 2 mL Hibernate A®/B27®/GlutaMAX™ (HEB) medium in a 5 mL tube. The HEB medium was removed to a 15 mL conical and kept on ice. 2 mL of chilled lysis buffer (10 mM Tris-HCl, 10 mM NaCl, 3 mM MgCl2, and 0.1% Nonidet™ P40 Substitute in Nuclease-Free Water) were added to the tissue, and the hippocampi were homogenized by suctioning 10× through a 21G needle. After homogenization, the tissue was lysed on ice for 15 min, swirling 2-3×during this incubation period. The reserved chilled HEB media was then returned to the lysed tissue solution, and the tissue was further triturated with 5-7 passes through a 1 mL pipette. A 30 μm cell strainer (MACS SmartStrainer; Miltenyi Biotech 130-110-915) was washed with 1 mL of PBS, and the lysed tissue solution was filtered through the strainer to remove debris and clumps. Filtered nuclei were centrifuged at 500 ref for 5 min at 4° C. […]
Single-Nucleus RNA-Seq Alignment, Clustering and Cell Type Identification. […] Reads from each sample were aligned to this genome and aggregated using the 10×Cellranger pipeline with no modifications. […] Genes with detected expression in at least 3 nuclei, and nuclei with at least 200 detected genes and a maximum of 2400 were retained for analysis for a total of Nuclei with a mitochondrial percentage of less than 0.0025 were retained for future analysis for a total of 27,415 cells. Highly variable genes were calculated via the FindVariableGenes function with the parameters: x.low.cutoff=0.0123, x.high.cutoff =3, y.cutoff=0.5 for a total of 2578 highly variable genes. […] PCAElbow Plot was used to plot the cumulative standard deviations of each principal component the significance of the association of each gene with each principal component was assessed via the JackStraw and JackStrawPlot function. […]

`CCCCNc1cc(C(=O)O)cc(S(N)(=O)=O)c1Oc1ccccc1` [bumetanide, 3-(butylamino)-4-phenoxy-5-sulfamoylbenzoic acid] was tested. Which “number of significantly perturbed pathways (Ingenuity Pathway Analysis)” value ([1]; DE genes P<0.05, apoE4-KI mouse hippocampus, 0.2 mg/kg i.p. 8 weeks) did it give?
The value was 71.

And the “number of enriched pathways shared with apoE4/4 AD in humans” value ([1]; apoE4-KI mouse hippocampus, 0.2 mg/kg i.p. 8 weeks)?
The value was 6.

And the “mean change in expression rank of genes downregulated in apoE4/4 AD (n=56)” value ([1]; apoE4-KI mouse hippocampus, 0.2 mg/kg i.p. 8 weeks vs vehicle)?
Its value is “not significantly shifted away from zero”.

What about the “average change in expression rank of the 157 genes upregulated in apoE4/4 human AD” value ([1]; apoE4-KI mouse hippocampus, 0.2 mg/kg i.p. 8 weeks vs vehicle, mean of all genes zero, P<0.001 Monte Carlo, shift toward lower expression) of the same molecule?
Its value is 49.76.

And the “number of those pathways also enriched in apoE4/4-mediated AD in humans” value ([2]; 0.2 mg/kg daily i.p. 8 weeks)?
The value was 19.

And the “number of cell types (of 18 clusters) in which apoE4/4 AD signature genes were flipped” value ([2]; 0.2 mg/kg daily i.p. 8 weeks, P<0.05 Monte Carlo)?
Its value is 12.

And the “number of ontological pathways enriched in at least one neuronal cell type with significant flip” value ([2]; p<0.005, 0.2 mg/kg daily i.p. 8 weeks)?
The value was 104.
